{"source": "patent US20060204502A1", "about": "(priority 2004, published 2006)", "key": {"Human Melanoma A375": {"test_system": "Human Melanoma A375", "test": "MTT growth inhibitory assay, A375", "settings": "A375 cells", "experimental": "An exemplary assay may comprise the following steps: Cells (1000-1500 cells/well) are seeded in a 96-well micro culture plate in a total volume of 100 μl/well. After overnight incubation in a humidified incubator at 37° C. with 5% CO2-95% air, chemotherapeutic drug solutions diluted with culture medium at various concentrations are added in the amount of 100 μl to each well. The plates are placed in a humidified incubator at 37° C. with 5% CO2-95% air for 7-10 days. The plates are then centrifuged briefly and 100 μl of the growth medium is removed. Cell cultures are incubated with 50 μl of MTT [3-(4,5-dimethylthiazol-2-yl)-2,5-diphenyl-tetrazolium bromide] reagent (1 mg/ml in Dulbecco's phosphate-buffered saline) for 4 hr at 37° C. The resultant purple formazan precipitate is solubilized with 200 μl of 0.04 N HCl in isopropanol. Absorbance is measured at a wavelength of 595 nm and at a reference wavelength of 655 nm using a Bio-Rad Model 3550 Microplate Reader. Preferably, all tests are run in duplicate for each dose level. […] The EZED50 computer program estimates the concentration of agent that inhibits cell growth by 50% as compared to the control cells. This is termed the IC50 and is determined by curve fitting test data using the following four logistic equation. [formula]\nIf testing concentrations are properly selected (i.e., no or little growth inhibition at low concentrations and complete inhibition at high concentrations), EZED50 program fits the data extremely well and estimates the IC50 value accurately. […] In these instances, the data could be re-analyzed by fixing the Amax value.\nIn this case, the IC50 could be estimated more accurately if both the Amax and Amin values are fixed. Although it may be feasible to estimate IC50 value by fixing Amax and/or Amax and Amin without repeating the experiment, the best way to determine the IC50 accurately is to decrease or increase the concentrations of the test agent and repeat the test.\nInhibitory assay testing is also used to determine enhanced therapeutic effects from combining A3 receptor antagonists with other tumor inhibiting agents. The inhibitory cell growth assays are run with and without selected concentrations of A3 receptor antagonists. An enhanced therapeutic effect is present when the IC50 of the tumor inhibiting agent is lower with the A3 receptor antagonist.\nQuantitatively, the enhancement factor (EF) is calculated by dividing the IC50 value of the tumor inhibiting agent for a tumor cell line by the IC50 value of the agent with A3 receptor antagonist for the same cell line: [formula]\nThe cells are cultured in a T25 Falcon Tissue Culture flask in a humidified incubator at 37° C. with 5% CO2-95% air. The cells are sub-cultured twice a week."}, "[1]": {"test_system": "Human Lung Carcinoma SKMES", "test": "MTT growth inhibitory assay, SKMES", "format": "cell-based", "settings": "SKMES cells, A3 antagonist at 1 μg/ml", "description": "(§1) Interpretation of the EF is dependent upon the concentrations of A3 receptor antagonist tested. For example, when using very low concentrations of A3 receptor antagonist, any EF above 1.0 is synergistic if the A3 receptor antagonist concentration is below the threshold of cell growth inhibition.\n(§2) The cells are sub-cultured twice a week.\n(§3) Vinblastine sulfate salt was obtained from Sigma Chemical Co., (V1377). Irinotecan was diluted with culture medium. All other agents were dissolved in 100% DMSO at appropriate concentrations. The DMSO stock solutions were diluted 100-fold with growth medium so that the final DMSO concentration was 1%."}, "P-gp": {"target": "P-gp (Homo sapiens, UniProt P08183)", "sequence (P08183 whole entry)": "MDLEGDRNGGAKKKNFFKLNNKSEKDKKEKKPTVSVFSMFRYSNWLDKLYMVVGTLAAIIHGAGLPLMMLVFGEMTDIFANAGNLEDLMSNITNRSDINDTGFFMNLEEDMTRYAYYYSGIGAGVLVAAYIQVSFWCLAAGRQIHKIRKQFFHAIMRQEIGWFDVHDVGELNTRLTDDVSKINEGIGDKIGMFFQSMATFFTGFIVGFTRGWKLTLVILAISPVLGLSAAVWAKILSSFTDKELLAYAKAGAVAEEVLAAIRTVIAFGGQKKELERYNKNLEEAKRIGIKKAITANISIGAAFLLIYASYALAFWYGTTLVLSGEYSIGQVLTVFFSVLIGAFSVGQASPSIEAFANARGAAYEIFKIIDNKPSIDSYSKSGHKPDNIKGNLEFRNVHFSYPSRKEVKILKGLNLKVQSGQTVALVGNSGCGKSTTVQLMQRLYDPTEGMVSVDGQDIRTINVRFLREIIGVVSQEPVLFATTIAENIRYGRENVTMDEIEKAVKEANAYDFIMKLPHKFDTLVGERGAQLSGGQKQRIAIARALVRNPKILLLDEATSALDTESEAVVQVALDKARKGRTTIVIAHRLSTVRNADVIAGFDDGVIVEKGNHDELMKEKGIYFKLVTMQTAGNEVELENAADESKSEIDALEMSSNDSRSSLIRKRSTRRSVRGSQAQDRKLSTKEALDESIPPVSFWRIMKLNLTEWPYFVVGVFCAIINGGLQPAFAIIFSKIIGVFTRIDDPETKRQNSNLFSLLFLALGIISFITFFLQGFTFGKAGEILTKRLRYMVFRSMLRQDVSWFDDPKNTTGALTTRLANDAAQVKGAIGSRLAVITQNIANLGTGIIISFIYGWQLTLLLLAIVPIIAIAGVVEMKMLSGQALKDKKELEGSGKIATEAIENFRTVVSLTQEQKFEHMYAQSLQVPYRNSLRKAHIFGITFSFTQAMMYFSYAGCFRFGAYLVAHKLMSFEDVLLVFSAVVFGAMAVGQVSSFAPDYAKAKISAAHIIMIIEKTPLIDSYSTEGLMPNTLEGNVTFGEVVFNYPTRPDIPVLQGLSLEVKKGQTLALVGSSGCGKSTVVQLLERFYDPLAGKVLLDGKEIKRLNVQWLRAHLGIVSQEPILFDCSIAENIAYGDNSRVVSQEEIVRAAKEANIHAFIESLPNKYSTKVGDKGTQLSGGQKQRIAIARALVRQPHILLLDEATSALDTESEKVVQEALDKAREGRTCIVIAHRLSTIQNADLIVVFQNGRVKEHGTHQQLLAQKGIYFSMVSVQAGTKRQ", "format": "cell-based", "settings": "10 μM; for P-gp mediated Rh123 efflux (FRES vs FMAX): 3 hours efflux", "description": "Rhodamine 123 Efflux Assay: 5×10^5 cells from each subline were loaded with 50 ng/ml of rhodamine 123 for 30 minutes at 37 C in medium. The cells were washed and resuspended in dye-staining agent free medium for 3 hours at 37 C. to allow rhodamine 123 efflux. The cells were then washed twice and the fluorescence of intracellular rhodamine 123 were analysed with Flow cytometer (residual fluorescence FRES). The fluorescence was compared with loaded cells maintained at 4 C. to prevent drug export (maximal fluorescence FMAX). […] Cells from each subline that were not being exposed to rhodamine 123 were used as negative controls.\nRhodamine 123 (Rh123) retention, a P-gp functional assay, was studied in all cell lines. This assay was performed by incubating cells with Rh123 and determining Rh123 accumulation by measuring its fluorescence. The maximum load of Rh123 (FMAX) was quantified at the end of treatment harvesting the cells and storing them at 4° C. to prevent any active Rh123 efflux. The P-gp drug efflux was allowed incubating Rh123-loaded cells in fresh new medium Rh123-free for 3 hours at 37° C. After this incubation, residual fluorescence (FRES) was measured and compared to FMAX."}, "A375 cells [2]": {"test_system": "A375 cells", "test": "Flow cytometry cell cycle (G2/M) and apoptosis (sub-G1) analysis, A375", "format": "cell-based, human", "settings": "Homo sapiens, A-375, read-out: SEC50", "description": "Flow Cytometry Analysis: A375 and NCTC2544 adherent cells were trypsinized, mixed with floating cells, washed with PBS and permeabilised in 70% (vol/vol) ethanol/PBS solution at 4° C. for at least 24 hours. Jurkat, HeL023 and PBMC cells were centrifuged for 10 minutes at 1000×g. The cell pellet was then resuspended and permeabllised in 70% (vol/vol) ethanol/PBS solution at 4° C. for at least 24 hours. The cells were washed with PBS and the DNA was stained with a PBS solution, containing 20 μg/ml of propidium iodide and 100 μg/ml of RNAse, at room temperature for 30 minutes. Cells were analysed by FACScan (Becton-Dickinson) and the content of DNA was evaluated by the Cell-LISYS program (Becton-Dickinson). Cell distribution among cell cycle phases and apoptotic cells was evaluated as previously described (Secchiero et al., 2001). Briefly, the cell cycle distribution is shown as the percentage of cells containing 2n (G1 phase), 4n (G2 and M phases), 4n>x>2n. DNA amount (S phase) judged by propidium iodide staining. The apoptotic population is the percentage of cells with DNA content lower than 2n.\nAfter 24 hours, cells were collected for flow cytometry analysis. PD 98059 was used at 20 uM as an inhibitor of MEK to prevent MEK-1 activation. […]\nEC50 values were obtained by analysing G2/M accumulation dose response curve. ECMAX values were obtained by analysing sub-G1 accumulation dose response curve. Paclitaxel values have units of ng/ml."}, "A375 cells [3]": {"test_system": "A375 cells", "test": "Colony formation assay of A375 cells", "format": "cell-based, human", "settings": "10 μM combined with paclitaxel (0.75 μg/ml), 7 days", "description": "FIG. 2 illustrates colony formation assay of A375 cells. Cells were treated with different drugs and colonies were counted after 7 days. The values represent the mean±SEM of four independent experiments. […] Analysis was by ANOVA followed by Dunnett's test.\nControl plates received the same volume of DMSO alone. After 7 days of growth at 37° C. in humidified atmosphere containing 5% CO2, the cells were fixed with absolute methanol for 5′ and stained with 1/10 Giemsa/phosphate-buffered saline (PBS) staining solution for 10 minutes. Staining solution was removed and colonies of greater than 30 cells were scored as survivors. For each treatment, six individual wells were scored."}, "[4]": {"test_system": "Human Colon Carcinoma HT29", "test": "MTT growth inhibitory assay, HT29", "format": "cell-based", "settings": "HT29 cells, A3 antagonist at 1 μg/ml", "description": "as §1, §2, §3"}}, "note": "“And” between values parts separate entries of the source, which are not always exact repeats. Identical values can stand only once. Like-named read-outs stand apart in the source and are kept apart here."}
{"smiles": "CCCn1cc2c(nc(NC(=O)Nc3ccc(OC)cc3)n3nc(-c4ccco4)nc23)n1", "note": "[MRE3008F20, 5-[[(4-Methoxyphenyl)amino]carbonyl]amino-8-propyl-2-(2-furyl)-pyrazolo[4,3-e]1,2,4-triazolo[1,5-c]pyrimidine]", "values": [{"measurement": "Enhancement Factor", "setting": "Human Melanoma A375; enhancement of docetaxel IC50, A3 antagonist at 3 μg/ml", "result": 6.9}, {"measurement": "Enhancement Factor", "setting": "Human Melanoma A375; enhancement of docetaxel IC50, A3 antagonist at 10 μg/ml", "result": 5.3}, {"measurement": "Enhancement Factor", "setting": "Human Melanoma A375; enhancement of paclitaxel IC50, A3 antagonist at 1 μg/ml", "result": 7.1}, {"measurement": "Enhancement Factor", "setting": "Human Melanoma A375; enhancement of paclitaxel IC50, A3 antagonist at 3 μg/ml", "result": 6.4}, {"measurement": "Enhancement Factor", "setting": "Human Melanoma A375; enhancement of paclitaxel IC50, A3 antagonist at 10 μg/ml", "result": "7.1 and 8.5"}, {"measurement": "Enhancement Factor", "setting": "Human Melanoma A375; enhancement of paclitaxel, at all three concentrations (1, 3, and 10 μg/ml)", "result": "6.4-7.1"}, {"measurement": "Enhancement Factor", "setting": "[1]; enhancement of docetaxel IC50", "result": 3.6}, {"measurement": "Enhancement Factor", "setting": "[1]; enhancement of irinotecan HCL IC50", "result": 2.1}, {"measurement": "Enhancement Factor", "setting": "[1]; enhancement of paclitaxel IC50", "result": 4.1}, {"measurement": "Enhancement Factor", "setting": "[1]; enhancement of vinblastine IC50", "result": 1.2}, {"measurement": "P-gp mediated Rh123 efflux (FRES vs FMAX)", "setting": "P-gp; A375 cells", "result": "completely blockade of P-gp mediated Rh123 transport"}, {"measurement": "% of Rh123 Negative Cells (cells expressing P-gp activity)", "setting": "P-gp; HeL023 cells", "result": "0.5 ± 0.3", "unit": "%"}, {"measurement": "P-gp mediated Rh123 efflux (FRES vs FMAX)", "setting": "P-gp; HeL023 cells", "result": "near total P-gp inhibition"}, {"measurement": "EC50", "setting": "A375 cells [2]", "result": "550 ± 60", "unit": "nM"}, {"measurement": "colony formation, % of DMSO control", "setting": "A375 cells [3]", "result": 0.2, "unit": "%"}, {"measurement": "Enhancement Factor", "setting": "[4]; enhancement of docetaxel IC50", "result": 15.0}, {"measurement": "Enhancement Factor", "setting": "[4]; enhancement of doxorubicin IC50", "result": 1.6}, {"measurement": "Enhancement Factor", "setting": "[4]; enhancement of irinotecan IC50", "result": 1.8}, {"measurement": "Enhancement Factor", "setting": "[4]; enhancement of paclitaxel IC50", "result": 2.9}]}
